The structures appear in SMILES notation.

What all share (format): in vivo
Data set [1] has as its system American cockroaches (Periplaneta americana). Briefly: Test Example 14: American cockroach, topical application, comparison with compound 112. To be noted: 1.0 μL topical, 7 days after treatment. The protocol: The compound 112 (hereinafter, referred to as “compound 112”), described in Table 40 of WO 2013/018928 pamphlet, and the present compound 1 were dissolved in acetone and then the acetone solutions of the designated concentration were prepared.
A droplet (1.0 μL) of the solution was topically applied onto the ventral prothorax of each female American cockroaches (Periplaneta americana). Then, the treated individuals were transferred to a clean polyethylene cup (bottom diameter: 12 cm, height: 10 cm) with some food and water. Each treatment consisted of 2 replications of 5 roaches/polyethylene cup. The mortality was determined on 7 days after treatment at 25° C. Mortality of insects (%)=(Number of dead insects/Number of tested insects)×100

For data set [2] the test system is unchanged. Briefly: Test Example 13: American cockroach, topical application of 10% w/v acetone solution. As to conditions: 1.0 μL topical on ventral prothorax, females, 7 days, 25° C. The method, then:
The present compounds 1 and 2 were dissolved in acetone and then the 10% w/v acetone solutions were prepared.
A droplet (1.0 μL) of the solution was topically applied onto the ventral prothorax of each female American cockroaches (Periplaneta americana). Then, the treated individuals were transferred to a clean polyethylene cup (bottom diameter: 12 cm, height: 10 cm) with some food and water. Each treatment consisted of 2 replications of 5 cockroaches/polyethylene cup. The mortality was determined on 7 days after treatment at 25° C. Mortality of insects (%)=(Number of dead insects/Number of tested insects)×100

Data set [3] concerns German cockroach (Blattella germanica). Briefly: Test Example 9: German cockroach, treated filter paper with sucrose bait. As to conditions: 500 ppm, 0.7 mL on filter paper, male adults, after 6 days. The method, then:
Each of the present compounds 1 to 3, 5, 7, and 13 was made to a formulation according to the Formulation example 5 and was then diluted with water so that the active ingredient concentration was set to 500 ppm to prepare the diluted solution. The bottom of the polyethylene cup having 5.5 cm diameter was matted with the same size of a filter paper, and 0.7 mL of the diluted solution was added dropwise to the filter paper and 30 mg sucrose as bait was placed in the cup uniformly. Two (2) heads of male adult German cockroach (Blattella germanica) were released into the polyethylene cup and the cup was covered with the lid. After 6 days, the life and death of German cockroach was examined and the number of died insects was counted and the mortality of insects was calculated by the following equation. Mortality of insects (%)=(Number of dead insects/Number of tested insects)×100

In data set [4] the test system is housefly (Musca domestica). The data set can be described thus: Test Example 8: housefly, treated filter paper with sucrose bait. As to conditions: 500 ppm, 0.7 mL on filter paper, female adults, after 24 hours. The method, then: Each of the present compounds 1 to 3, 5, 7, 8, 11, 13 to 16, 21 and 22 was made to a formulation according to the Formulation example 5 and was then diluted with water so that the active ingredient concentration was set to 500 ppm to prepare the diluted solution. The bottom of the polyethylene cup having 5.5 cm diameter was matted with the same size of a filter paper, and 0.7 mL of the diluted solution was added dropwise to the filter paper and 30 mg sucrose as bait was placed in the cup uniformly. Ten (10) heads of female adult housefly (Musca domestica) were released into the polyethylene cup and the cup was covered with the lid. After 24 hours, the life and death of housefly was examined and the number of died insects was counted and the mortality of insects was calculated by the following equation. Mortality of insects (%)=(Number of dead insects/Number of tested insects)×100

Regarding `CCS(=O)(=O)c1cc(-c2ncccn2)cnc1-c1nc2cc(C(F)(F)F)cnc2n1C` [Compound 112], the “Morality (%)” value in data set [1] (concentration 2 w/v%) amounted to 70%; in data set [1] (concentration 4 w/v%), 100%.
Regarding `CCS(=O)(=O)c1ccc(-n2cnc(Cl)n2)nc1-c1nc2cc(C(F)(F)F)cnc2n1C` [compound 2], the Mortality of insects in data set [2] stood at 100%.
`CCS(=O)(=O)c1ccc(-n2cnc(C(F)(F)F)n2)nc1-c1nc2cc(C(F)(F)F)cnc2n1C` [compound 5]: the Mortality of insects in data set [3] and in data set [4] was 100% throughout.
Turning to `CCS(=O)(=O)c1ccc(-n2cnc(SC)n2)nc1-c1nc2cc(C(F)(F)F)cnc2n1C` [compound 7], the Mortality of insects in data set [3] and in data set [4] was 100% in each case.
`CCS(=O)(=O)c1ccc(-n2cnc(S(C)(=O)=O)n2)nc1-c1nc2cc(C(F)(F)F)cnc2n1C` [compound 8] showed a Mortality of insects in data set [4] of 100%.
Take `CCS(=O)(=O)c1ccc(-n2cnc(C(=O)OC)n2)nc1-c1nc2cc(C(F)(F)F)cnc2n1C` [compound 11]: in data set [4], the Mortality of insects was 100%.
For the molecule `CCSc1ccc(-n2cncn2)nc1-c1nc2cc(C(F)(F)F)cnc2n1C` [compound 13], the Mortality of insects in data set [3] was determined as 100%.
Turning to `CC[S+]([O-])c1ccc(-n2cnc(C(F)(F)F)n2)nc1-c1nc2cc(C(F)(F)F)cnc2n1C` (stereo not drawn) [compound 21], the Mortality of insects in data set [4] is 100%.
With `CC[S+]([O-])c1ccc(-n2cnc(SC)n2)nc1-c1nc2cc(C(F)(F)F)cnc2n1C` (stereo not drawn) [compound 22], in data set [4], the Mortality of insects was found to be 100%.

The values above are taken from patent publication US9668482B1, “Fused heterocyclic compound and pest control application thereof” (Sumitomo Chemical Company, Limited, priority 2014, dated 2017).
